US20260294908A1, “NEUROACTIVE ANDROGEN RECEPTOR MODULATORS AND USE THEREOF” (priority 2023, published 2026)
Read-outs that look alike come from different tables or passages of the source.

Assays:
[1] = molecular target: T1, androgen receptor (Homo sapiens, UniProt P10275); assay: cell-based; format: cell-based; details: for Emax: HEK-293T, read-out: % relative efficacy
T1 construct: expressed in transfected cells; host or cells: HEK293T (ATCC, CRL-3216)
Protocol: Androgen Receptor Reporter Gene Assay (AR Reporter Gene Assay)
This experiment was performed to investigate the agonistic activity of the compounds of the present disclosure on androgen receptors.
The EC50 was calculated according to the following formula: […]
X represents the logarithm of the activator concentration; Y represents the […]; Bottom represents the lowest plateau value of the curve; Top represents the highest plateau value of the curve; and Hillslope represents the slope of the curve.
The % relative effectiveness was calculated according to the following formula: […]
Activatedcmpd: mean activation value of the compound signal across the entire plate.
ActivatedAve_PC: mean activation value of the positive control across the entire plate.
ActivatedAve_VC: mean activation value of the vehicle control across the entire plate.

[2] = for metabolites detected after administration: high-resolution mass spectrometry; for metabolites detected after administration / concentration of metabolites in serum and brain (in words): metabolite = compound of Example 3; for concentration of the compound in serum and brain (in words): after administration
Protocol: • (1) The experimental protocol was referenced and complied with the National Institutes of Health Guide for the Care and Use of Laboratory Animals, and was approved by the Laboratory Animal Welfare and Ethics Committee of the Chinese Institute for Brain Research (CIBR). • (2) Wild-type male C57BL/6J mice, aged 6-7 weeks and weighing 18-22 grams, were used. The mice were housed in a constant-temperature incubator with a 12-hour light-dark cycle and free access to food and water. Food was withheld one day before the experiment, while free access to water was permitted. The mice were injected intraperitoneally with the test compound at a dose of 20 mg/kg. […] After sampling, the samples were immediately centrifuged at low speed to remove blood cells, and hemolysis was minimized as much as possible. After collection, the serum was sent to the mass spectrometry center for pretreatment. • (4) The brain tissue was rapidly dissected after treatment and frozen in liquid nitrogen for later use.
The sample (100 μL) was warmed to the room temperature, acetonitrile: methanol (500 μL, v/v=50:50) was added to the solution, and the sample was vortexed for 20 s. The sample was centrifuged at 5,000 g for 15 min at 4° C. Subsequently, 90% of the supernatant was transferred to a glass tube and concentrated at 45° C. for 1.5 h using a vacuum concentrator. The dried sample was reconstituted in 400 μL of acetonitrile and water mixture (v/v=50/50) and vortexed for 20 s. The resulting mixture was transferred to an EP tube and centrifuged at 5,000 g for 15 min at 4° C. The supernatant was filtered through a 0.22 μm filter and analyzed by LC-MS/MS.
The brain sample (100 mg) was thawed, transferred to a homogenizer tube containing three zirconia beads, and homogenized. After processing as described for the serum samples, the supernatant was then filtered through a 0.22 μm filter, and analyzed by LC-MS/MS.

[3] = molecular target: recombinant human androgen receptor (AR) protein (Homo sapiens, UniProt P10275); format: binding
[4] = mouse, 20 mg/kg intraperitoneal

Chain of recombinant human androgen receptor (AR) protein (P10275 673-918): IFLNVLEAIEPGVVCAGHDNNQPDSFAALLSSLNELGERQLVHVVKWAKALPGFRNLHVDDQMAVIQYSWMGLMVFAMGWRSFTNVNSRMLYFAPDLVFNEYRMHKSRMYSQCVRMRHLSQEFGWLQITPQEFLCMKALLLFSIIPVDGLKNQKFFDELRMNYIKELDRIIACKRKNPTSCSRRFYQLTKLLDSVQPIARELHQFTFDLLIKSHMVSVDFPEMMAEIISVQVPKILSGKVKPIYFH
T1 sequence (P10275 whole entry): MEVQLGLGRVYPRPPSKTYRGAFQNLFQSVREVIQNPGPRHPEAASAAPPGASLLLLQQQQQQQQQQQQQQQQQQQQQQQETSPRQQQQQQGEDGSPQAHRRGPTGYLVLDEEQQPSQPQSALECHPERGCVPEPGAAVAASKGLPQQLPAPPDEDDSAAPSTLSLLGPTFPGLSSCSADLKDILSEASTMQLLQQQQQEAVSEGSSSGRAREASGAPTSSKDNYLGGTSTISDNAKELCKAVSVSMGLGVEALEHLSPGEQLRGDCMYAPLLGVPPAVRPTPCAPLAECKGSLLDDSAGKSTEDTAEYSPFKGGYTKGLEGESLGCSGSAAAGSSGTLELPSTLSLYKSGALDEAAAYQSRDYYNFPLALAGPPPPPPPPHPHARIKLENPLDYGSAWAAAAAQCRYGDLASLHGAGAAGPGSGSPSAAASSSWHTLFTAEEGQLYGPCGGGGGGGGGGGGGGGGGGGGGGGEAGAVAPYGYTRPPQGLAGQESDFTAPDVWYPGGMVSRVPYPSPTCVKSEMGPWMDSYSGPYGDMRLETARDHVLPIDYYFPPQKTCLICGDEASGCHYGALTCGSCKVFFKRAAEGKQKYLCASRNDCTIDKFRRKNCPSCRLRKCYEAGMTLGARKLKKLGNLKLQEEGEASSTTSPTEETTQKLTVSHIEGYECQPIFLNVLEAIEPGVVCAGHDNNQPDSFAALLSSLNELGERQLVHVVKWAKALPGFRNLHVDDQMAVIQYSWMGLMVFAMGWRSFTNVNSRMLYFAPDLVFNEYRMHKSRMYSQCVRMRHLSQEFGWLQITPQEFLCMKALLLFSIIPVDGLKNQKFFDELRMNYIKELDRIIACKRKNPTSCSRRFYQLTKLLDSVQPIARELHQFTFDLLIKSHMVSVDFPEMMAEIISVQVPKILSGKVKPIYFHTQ

| Structure (SMILES) | metabolites detected after administration [2] | concentration of metabolites in serum and brain (in words) [2] | blood-brain barrier permeability (in words) [2, 4] | concentration of the compound in serum and brain (in words) ([2]; parent compound) | other results |
| --- | --- | --- | --- | --- | --- |
| C[C@@](COc1ccc(C#N)cc1)(OC(=O)C1CCCC1)C(=O)Nc1cnc(C#N)c(C(F)(F)F)c1 [Ex. 22, (S)-1-((6-cyano-5-(trifluoromethyl)pyridin-3-yl)amino)-3-(4-cyanophenoxy)-2-methyl-1-oxopropan-2-yl cyclopentanecarboxylate] | detected | higher concentrations of metabolites | certain blood-brain barrier permeability | lower concentrations of the compound | Emax [1]: 2.3% |
| C[C@](O)(COc1cc(C(F)(F)F)ncn1)C(=O)Nc1ccc(C#N)c(C(F)(F)F)c1 [Ex. 2, (S)-N-(4-cyano-3-(trifluoromethyl)phenyl)-2-hydroxy-2-methyl-3-((6-(trifluoromethyl)pyrimidin-4-yl)oxy)propionamide] |  |  |  |  | Affinity KD ([3]; Biacore T200, CM5 chip, human AR Ile673-His918 with N-terminal His Tag): No binding |
| C[C@](O)(COc1ccc(C#N)c(F)c1)C(=O)Nc1cnc(C#N)c(C(F)(F)F)c1 [Ex. 8, (S)-3-(4-cyano-3-fluorophenoxy)-N-(6-cyano-5-(trifluoromethyl)pyridin-3-yl)-2-hydroxy-2-methylpropionamide] |  |  |  |  | concentration detected in serum and brain (in words) ([2]; mouse, in vivo, ip, 20 mg/kg): certain concentrations of the compound were detected in serum and brain up to 72 h after administration; blood-brain barrier permeability (in words) ([2]; mouse, not told, ip, 20 mg/kg): good blood-brain barrier permeability |
| CC(C)C(=O)O[C@@](C)(COc1ccc(C#N)cc1)C(=O)Nc1cnc(C#N)c(C(F)(F)F)c1 [Ex. 21, (S)-1-((6-cyano-5-(trifluoromethyl)pyridin-3-yl)amino)-3-(4-cyanophenoxy)-2-methyl-1-oxopropan-2-yl isobutyrate] | detected | higher concentrations of metabolites | certain blood-brain barrier permeability | lower concentrations of the compound |  |
| C[C@](O)(COc1cc(C(F)(F)F)ncn1)C(=O)Nc1cnc(C#N)c(C(F)(F)F)c1 [Ex. 1, (S)-N-(6-cyano-5-(trifluoromethyl)pyridin-3-yl)-2-hydroxy-2-methyl-3-((6-(trifluoromethyl)pyrimidin-4-yl)oxy)propionamide] |  |  |  |  | Affinity KD [3]: No binding |
| CC(=O)O[C@@](C)(COc1ccc(C#N)cc1)C(=O)Nc1cnc(C#N)c(C(F)(F)F)c1 [Ex. 24, (S)-1-((6-cyano-5-(trifluoromethyl)pyridin-3-yl)amino)-3-(4-cyanophenoxy)-2-methyl-1-oxopropan-2-yl acetate] | detected |  |  |  | bioavailability in the brain (in words) ([2]; compared with Example 3): significantly improved; metabolism (in words) ([2]; in vivo, mouse): partially metabolized to the compound of Example 3; total concentration of parent drug and metabolites in the brain (in words) ([2]; mouse, in vivo): significantly higher |
| C[C@](O)(COc1ccc(C#N)nc1)C(=O)Nc1ccc(C#N)c(C(F)(F)F)c1 [Ex. 4, (S)-N-(4-cyano-3-(trifluoromethyl)phenyl)-3-((6-cyanopyridin-3-yl)oxy)-2-hydroxy-2-methylpropionamide] |  |  |  |  | affinity to the androgen receptor proteins (in words) [3]: strong affinity |
| C[C@@](COc1ccc(C#N)cc1)(OC(=O)CCCC[C@@H]1CCSS1)C(=O)Nc1cnc(C#N)c(C(F)(F)F)c1 [Ex. 15, (S)-1-((6-cyano-5-(trifluoromethyl)pyridin-3-yl)amino)-3-(4-cyanophenoxy)-2-methyl-1-oxopropyl-2-yl 5-((R)-1,2-dithiolan-3-yl) pentanoate] |  |  |  |  | metabolism (in words) ([2]; mouse, in vivo): may undergo rapid metabolic processes in vivo |
| C[C@](O)(COc1ccc(C#N)cc1)C(=O)Nc1cnc(C#N)c(C(F)(F)F)c1 [Ex. 3, (S)-N-(6-cyano-5-(trifluoromethyl)pyridin-3-yl)-3-(4-cyanophenoxy)-2-hydroxy-2-methylpropionamide] |  |  | good blood-brain barrier permeability |  | androgen receptor protein binding affinity and agonistic activity (in words) [1]: excellent androgen receptor protein binding affinity and agonistic activity; concentration detected in serum and brain (in words) ([2]; up to 72 h, 20 mg/kg intraperitoneal, parent compound): certain concentrations of the compound were detected in serum and brain up to 72 h after administration; affinity to the androgen receptor proteins (in words) [3]: strong affinity |
| C[C@@](COc1ccc(C#N)cc1)(OC(=O)c1cccnc1)C(=O)Nc1cnc(C#N)c(C(F)(F)F)c1 [Ex. 13, (S)-1-((6-cyano-5-(trifluoromethyl)pyridin-3-yl)amino)-3-(4-cyanophenoxy)-2-methyl-1-oxopropan-2-yl nicotinate] | detected | higher concentrations of metabolites | certain blood-brain barrier permeability | lower concentrations of the compound |  |
| CCC(=O)O[C@@](C)(COc1ccc(C#N)cc1)C(=O)Nc1cnc(C#N)c(C(F)(F)F)c1 [Ex. 28, (S)-1-((6-cyano-5-(trifluoromethyl)pyridin-3-yl)amino)-3-(4-cyanophenoxy)-2-methyl-1-oxopropan-2-yl-propionate] | detected | higher concentrations of metabolites | certain blood-brain barrier permeability | lower concentrations of the compound |  |
| C[C@@](COc1ccc(Cl)nc1)(OC(=O)c1cccnc1)C(=O)Nc1cnc(C#N)c(C(F)(F)F)c1 [Ex. 30, (S)-1-((6-cyano-5-(trifluoromethyl)pyridin-3-yl)amino)-3-((6-chloropyridin-3-yl)oxy)-2-methyl-1-oxopropan-2-yl nicotinate] |  |  |  |  | Emax [1]: 14.5% |
| C[C@@](COc1ccc(C#N)cc1)(OC(=O)c1ccccc1)C(=O)Nc1cnc(C#N)c(C(F)(F)F)c1 [Ex. 26, (S)-1-((6-cyano-5-(trifluoromethyl)pyridin-3-yl)amino)-3-(4-cyanophenoxy)-2-methyl-1-oxopropan-2-yl benzoate] | detected | higher concentrations of metabolites | certain blood-brain barrier permeability | lower concentrations of the compound | affinity to the androgen receptor proteins (in words) [3]: strong affinity |
| C[C@](O)(COc1ccc(C#N)nc1)C(=O)Nc1cnc(C#N)c(C(F)(F)F)c1 [Ex. 5, (S)-N-(6-cyano-5-(trifluoromethyl)pyridin-3-yl)-3-((6-cyanopyridin-3-yl)oxy)-2-hydroxy-2-methylpropionamide] |  |  |  |  | androgen receptor protein binding affinity and agonistic activity (in words) [1]: excellent androgen receptor protein binding affinity and agonistic activity; affinity to the androgen receptor proteins (in words) [3]: strong affinity |
